In ChEMBL document CHEMBL5120796, “A novel photocaged B-RafV600E inhibitor toward precise melanoma treatment” (Bioorg Med Chem Lett, 2022):
Active and inactive are the calls of the source. No cut-off for these calls is given here.

How the values were obtained:
[1] = system: A-375; assay: Antiproliferative activity against human A-375 cells harboring B-RAF V600E mutant assessed as cell growth inhibition irradiated with 365 nm UV light for 0.5 mins measured after 72 hrs by CCK-8 analysis; assay type: functional, cell-based; conditions: A-375, light or radiation study
[2] = system: A-375; assay: Antiproliferative activity against human A-375 cells harboring B-RAF V600E mutant assessed as cell growth inhibition irradiated with sun light for 10 mins measured after 72 hrs by CCK-8 analysis; assay type: functional, cell-based; conditions: A-375, light or radiation study
[3] = system: A-375; assay: Antiproliferative activity against human A-375 cells harboring B-RAF V600E mutant assessed as cell growth inhibition measured after 72 hrs by CCK-8 analysis; assay type: functional, cell-based; conditions: A-375, 72 h
[4] = system: A-375; assay: Antiproliferative activity against human A-375 cells harboring B-RAF V600E mutant assessed as cell growth inhibition irradiated with 365 nm UV light for 2.5 mins measured after 72 hrs by CCK-8 analysis; assay type: functional, cell-based; conditions: A-375, light or radiation study
[5] = system: A-375; assay: Antiproliferative activity against human A-375 cells harboring B-RAF V600E mutant assessed as cell growth inhibition irradiated with sun light for 5 mins measured after 72 hrs by CCK-8 analysis; assay type: functional, cell-based; conditions: A-375, light or radiation study
[6] = Retention time of compound in PBS buffer by UPLC analysis; assay type: physicochemical; conditions: dose 5.85 µg/ml
[7] = system: SK-MEL-1; assay: Antiproliferative activity against human SK-MEL-1 cells harboring […] B-RAF assessed as cell growth inhibition measured after 72 hrs by CCK-8 analysis; assay type: functional, cell-based; conditions: SK-MEL-1, 72 h
[8] = system: A-375; assay: Antiproliferative activity against human A-375 cells harboring B-RAF V600E mutant assessed as cell growth inhibition irradiated with sun light for 0.5 mins measured after 72 hrs by CCK-8 analysis; assay type: functional, cell-based; conditions: A-375, light or radiation study
[9] = system: A-375; assay: Antiproliferative activity against human A-375 cells harboring B-RAF V600E mutant assessed as cell growth inhibition irradiated with 365 nm UV light for 10 mins measured after 72 hrs by CCK-8 analysis; assay type: functional, cell-based; conditions: A-375, light or radiation study
[10] = system: SK-MEL-2; assay: Antiproliferative activity against human SK-MEL-2 cells harboring wild type B-RAF assessed as cell growth inhibition irradiated with 365 nm UV light for 5 mins measured after 72 hrs by CCK-8 analysis; assay type: functional, cell-based; conditions: SK-MEL-2, light or radiation study
[11] = system: SK-MEL-1; assay: Antiproliferative activity against human SK-MEL-1 cells harboring […] B-RAF assessed as cell growth inhibition irradiated with 365 nm UV light for 5 mins measured after 72 hrs by CCK-8 analysis; assay type: functional, cell-based; conditions: SK-MEL-1, light or radiation study
[12] = system: A-375; assay: Inhibition of ERK phosphorylation in human A-375 cells at 0.1 to 10 uM incubated for 2 hrs irradiated with 365 nm UV light for 5 mins by Western blot analysis; assay type: cell-based; conditions: dose 0.1-10 µM
[13] = system: A-375; assay: Antiproliferative activity against human A-375 cells harboring B-RAF V600E mutant assessed as cell growth inhibition irradiated with 365 nm UV light for 5 mins measured after 72 hrs by CCK-8 analysis; assay type: functional, cell-based; conditions: A-375, light or radiation study
[14] = system: A-375; assay: Inhibition of ERK phosphorylation in human A-375 cells at 0.1 to 10 uM incubated for 2 hrs by Western blot analysis; assay type: cell-based; conditions: dose 0.1-10 µM
[15] = system: A-375; assay: Antiproliferative activity against human A-375 cells harboring B-RAF V600E mutant assessed as cell growth inhibition irradiated with sun light for 2.5 mins measured after 72 hrs by CCK-8 analysis; assay type: functional, cell-based; conditions: A-375, light or radiation study
[16] = biological target: Serine/threonine-protein kinase B-raf (Homo sapiens, UniProt P15056, V600E); assay: Inhibition of GST-tagged recombinant human B-RAF V600E mutant expressed in baculovirus expression system incubated for 1 hr in presence of ATP by FRET-based Z'-Lyte analysis
Serine/threonine-protein kinase B-raf, sequence (P15056 2-766 V600E limits assumed): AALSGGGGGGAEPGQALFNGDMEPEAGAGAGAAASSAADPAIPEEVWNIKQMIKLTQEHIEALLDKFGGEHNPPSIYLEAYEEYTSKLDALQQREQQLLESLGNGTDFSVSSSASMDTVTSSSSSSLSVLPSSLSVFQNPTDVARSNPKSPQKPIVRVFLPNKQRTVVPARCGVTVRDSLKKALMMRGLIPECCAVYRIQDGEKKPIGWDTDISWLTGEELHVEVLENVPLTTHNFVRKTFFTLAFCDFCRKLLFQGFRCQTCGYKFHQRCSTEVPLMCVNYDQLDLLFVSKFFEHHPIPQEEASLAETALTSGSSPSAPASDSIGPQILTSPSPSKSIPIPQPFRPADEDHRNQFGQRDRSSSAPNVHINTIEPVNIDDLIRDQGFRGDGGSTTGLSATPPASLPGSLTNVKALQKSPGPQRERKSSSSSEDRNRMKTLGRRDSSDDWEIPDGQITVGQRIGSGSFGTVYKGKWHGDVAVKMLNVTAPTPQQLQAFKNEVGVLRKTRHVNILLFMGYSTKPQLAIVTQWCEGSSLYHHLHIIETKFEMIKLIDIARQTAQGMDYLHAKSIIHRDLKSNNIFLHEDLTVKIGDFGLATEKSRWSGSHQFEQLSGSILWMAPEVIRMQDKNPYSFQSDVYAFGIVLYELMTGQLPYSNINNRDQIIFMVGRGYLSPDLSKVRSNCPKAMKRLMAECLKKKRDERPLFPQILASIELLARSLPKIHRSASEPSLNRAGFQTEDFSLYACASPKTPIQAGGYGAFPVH

[17] = system: SK-MEL-2; assay: Antiproliferative activity against human SK-MEL-2 cells harboring wild type B-RAF assessed as cell growth inhibition measured after 72 hrs by CCK-8 analysis; assay type: functional, cell-based; conditions: SK-MEL-2, 72 h
[18] = Photorelease ability in PBS buffer assessed as N-(2,4-difluoro-3-((3-(4-fluorophenyl)-1H-pyrazolo[3,4-b]pyridin-5-yl)ethynyl)phenyl)pyridine-3-sulfonamide formation by measuring half life at 5.85 ug/ml irradiated with 365 nm UV light by UPLC analysis; assay type: functional; conditions: dose 5.85 µg/ml
[19] = Photorelease ability in PBS buffer assessed as N-(2,4-difluoro-3-((3-(4-fluorophenyl)-1H-pyrazolo[3,4-b]pyridin-5-yl)ethynyl)phenyl)pyridine-3-sulfonamide formation by measuring half life at 5.85 ug/ml irradiated with sun light by UPLC analysis; assay type: functional; conditions: dose 5.85 µg/ml

Structure (SMILES)	IC50 [1] [nM]	IC50 [2] [nM]	IC50 [3] [nM]	IC50 [4] [nM]	IC50 [5] [nM]	Retention_time [6] [min]	IC50 [7] [nM]	IC50 [8] [nM]	IC50 [9] [nM]	IC50 [10] [nM]	IC50 [11] [nM]	inhibition [12]	IC50 [13] [nM]	inhibition [14]	IC50 [15] [nM]	IC50 [16] [nM]	IC50 [17] [nM]	T1/2 [18] [min]	T1/2 [19] [min]
O=S(=O)(Nc1ccc(F)c(C#Cc2cnc3[nH]nc(-c4ccc(F)cc4)c3c2)c1F)c1cccnc1	190	190	210	170	170	1.7	760	160	220	> 10000	560	Active	180	Active	160	21	> 10000		
COc1cc(CN(c2ccc(F)c(C#Cc3cnc4[nH]nc(-c5ccc(F)cc5)c4c3)c2F)S(=O)(=O)c2cccnc2)c([N+](=O)[O-])cc1OC	700	290	> 10000	370	280	5.9	> 10000	850	240	> 10000	840	Active	210		340	> 10000	> 10000	2	2.8
